The source of these data is PMC4718634, “Murine GPRC6A Mediates Cellular Responses to L-Amino Acids, but Not Osteocalcin Variants” (PLoS ONE, 2016).

The target in the assay is T1, mGPRC6A (mouse GPRC6A) (Mus musculus, UniProt Q8K4Z6).
T1 sequence (Q8K4Z6 21-928): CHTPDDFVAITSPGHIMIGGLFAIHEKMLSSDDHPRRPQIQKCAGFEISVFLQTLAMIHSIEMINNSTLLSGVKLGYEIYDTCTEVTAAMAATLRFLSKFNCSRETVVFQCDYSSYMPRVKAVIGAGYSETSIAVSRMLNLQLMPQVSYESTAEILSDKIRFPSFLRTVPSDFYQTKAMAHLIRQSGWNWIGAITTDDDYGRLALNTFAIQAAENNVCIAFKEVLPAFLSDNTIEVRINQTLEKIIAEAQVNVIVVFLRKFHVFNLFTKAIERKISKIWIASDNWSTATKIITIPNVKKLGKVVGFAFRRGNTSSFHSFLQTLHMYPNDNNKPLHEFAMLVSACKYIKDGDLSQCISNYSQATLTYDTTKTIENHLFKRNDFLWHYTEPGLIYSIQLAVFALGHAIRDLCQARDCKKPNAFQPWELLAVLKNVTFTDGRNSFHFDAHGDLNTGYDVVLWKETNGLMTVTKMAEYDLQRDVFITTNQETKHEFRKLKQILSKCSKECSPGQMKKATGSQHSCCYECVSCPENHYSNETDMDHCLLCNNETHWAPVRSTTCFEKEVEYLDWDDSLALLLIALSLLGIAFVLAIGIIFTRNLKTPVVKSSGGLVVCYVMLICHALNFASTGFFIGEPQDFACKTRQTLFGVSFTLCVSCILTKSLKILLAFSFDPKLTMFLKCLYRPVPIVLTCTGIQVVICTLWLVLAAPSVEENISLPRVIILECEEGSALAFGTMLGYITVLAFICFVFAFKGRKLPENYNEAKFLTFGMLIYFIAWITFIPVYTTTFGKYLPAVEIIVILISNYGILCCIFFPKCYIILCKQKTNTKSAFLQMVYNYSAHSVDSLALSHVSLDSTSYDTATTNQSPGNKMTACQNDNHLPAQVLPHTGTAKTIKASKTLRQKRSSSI
Description: Ca^2+i mobilisation, FlpIn-TREx-HEK293-mGPRC6A cells. In kind it is cell-based. The method in brief:
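Tetracycline-induced FlpIn-TREx-HEK293 cells expressing mouse GPRC6A, transiently transfected with Gαq or GαqG66D and serum-starved overnight, were loaded with 1 μM Fluo-4-AM 1 h at 37 °C in pH 7.4 buffer with probenecid.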

As to `NCCC[C@H](N)C(=O)O` [L-ornithine], the “potency at murine GPRC6A (calcium and inositol phosphate, words)” value (calcium mobilisation and inositol phosphate accumulation, Discussion) is “most potent agonists”. Besides, the “rank order of potency, Ca^2+ mobilisation” value (co-expressing GαqG66D, Fig 1D) is on record as “L-ornithine > L-arginine = L-lysine”. Further, the EC50 (co-expressing GαqG66D, Fluo-4, normalised to 100 μM ATP, pEC50 ± SEM, printed in picture Fig 1D, read-out: pEC50, Ca^2+ mobilisation (converted)) was 3.16 µM.
